The results in this text go back to ChEMBL document CHEMBL1201862, “PubChem BioAssay data set” (2004).

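Values below derive from 48-hour exposures of cells grown in 96-well plates, with endpoints linearly interpolated between the two concentrations bracketing the appropriate inhibition level. GI50 marks 50% less growth.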 Calls of active or inactive are those of the source. Rule as the data show it: active = GI50 up to about 1.1 µM and inactive = higher.

Common to all, as to assay: growth of human tumour cells (NCI), 48 h
Assay [1] relates to MDA-MB-435.
In assay [2] the test system is SK-MEL-5.
Assay [3] deals with Hs-578T.
In assay [4] the test system is HL-60.
The subject of assay [5] is A549.
Assay [6] concerns LOX IMVI.
For assay [7], the system named is RPMI-8226.
In assay [8] the test system is HCT-116.
Assay [9] relates to DU-145.
Assay [10] deals with HCC 2998.
The test system of assay [11] is Malme-3M.
For assay [12], the system named is RXF 393.
In assay [13] the test system is SF-539.
In assay [14] the test system is SK-MEL-28.
Assay [15] deals with OVCAR-4.
Assay [16] has as its system UO-31.
The subject of assay [17] is HOP-62.
Assay [18] has as its system SW-620.
The subject of assay [19] is NCI/ADR-RES.
For assay [20], the system named is OVCAR-3.

Take `C=CCN1CCC2(CC1)NC(=O)c1ccccc1O2`: the GI50 in assay [1], in [2], in [3], in assay [4], in assay [5] and in assay [6] was > 100 µM (inactive) each time. Besides, the GI50 in assay [7], in [8], in assay [9], in assay [10], in assay [11] and in assay [12] was > 100 µM (inactive) throughout. Besides, the GI50 in assay [13], in assay [14], in assay [15], in assay [16], in assay [17] and in assay [18] was > 100 µM (inactive) in each case. In addition, the GI50 in assay [19] and in assay [20] was > 100 µM (inactive) each time.

On to `Cc1cc(O)c(C(C)C)cc1C1(c2cc(C(C)C)c(O)cc2C)OC(=O)c2ccccc21`, for which the GI50 was 1.63 µM (inactive) in [1]; 1.6 µM (inactive) in assay [2]; 2.14 µM (inactive) in assay [3]; 0.415 µM (active) in [4]; 3.05 µM (inactive) in assay [5]; 1.78 µM (inactive) in [6]. In addition, the GI50 was 1.21 µM (inactive) in assay [7]; 1.67 µM (inactive) in [8]; 2.07 µM (inactive) in [9]; 1.73 µM (inactive) in [10]; 2.21 µM (inactive) in [11]; 1.47 µM (inactive) in assay [12]. Besides, the GI50 in assay [13] is 1.79 µM (inactive); in assay [14] it was 1.6 µM (inactive); in assay [15] it was 2.12 µM (inactive); in assay [16], 2.56 µM (inactive); in assay [17] it was 2.76 µM (inactive); in assay [18], 1.76 µM (inactive). Besides, the GI50 was 2.9 µM (inactive) in assay [19] and 2.06 µM (inactive) in [20].

For `Cc1ccc(O)c(C2=CC3=NNC(=O)C3C(c3cccc(Br)c3)C2)c1` (stereo not given), the GI50 in assay [1] was 23.9 µM (inactive); in assay [2], 23.1 µM (inactive); in assay [3] it was 27.1 µM (inactive); in assay [4] it was 25.4 µM (inactive); in [5] it was 23 µM (inactive); in assay [6], 14 µM (inactive). In addition, the GI50 is 22.1 µM (inactive) in [7]; 21 µM (inactive) in assay [8]; 29.2 µM (inactive) in assay [9]; 14.7 µM (inactive) in assay [10]; 25.9 µM (inactive) in assay [11]; 14.2 µM (inactive) in [12]. The GI50 is 29.4 µM (inactive) in [13]; 20.6 µM (inactive) in assay [14]; 8.04 µM (inactive) in [15]; 57.3 µM (inactive) in assay [16]; 55 µM (inactive) in [17]; 27.7 µM (inactive) in assay [18]. Besides, the GI50 was 34.6 µM (inactive) in assay [19] and 22.3 µM (inactive) in assay [20].

`CCOC(=O)CCC(NC(=O)c1ccc(Nc2cnc3cc(C(F)(F)F)ccc3n2)cc1)C(=O)OCC` (stereo not given): the GI50 in assay [1] is > 100 µM (inactive); in assay [2], > 100 µM (inactive); in assay [3] it was 6.21 µM (inactive); in assay [4], > 100 µM (inactive); in assay [5], > 89.3 µM (inactive); in [6], > 100 µM (inactive). In addition, the GI50 is > 100 µM (inactive) in assay [7]; 17.8 µM (inactive) in assay [8]; > 100 µM (inactive) in assay [9]; > 30.6 µM (inactive) in [10]; > 57 µM (inactive) in [11]; 3.55 µM (inactive) in [12]. Besides, the GI50 in assay [13] was > 100 µM (inactive); in assay [14], > 100 µM (inactive); in assay [15] it was 36.7 µM (inactive); in [16], > 100 µM (inactive); in [17], 11 µM (inactive); in [18], > 100 µM (inactive). Also, the GI50 in assay [19] and in assay [20] was > 100 µM (inactive) throughout.

Take `Clc1cc(C(c2cc(Cl)sc2Cl)c2cc(Cl)sc2Cl)c(Cl)s1`: the GI50 in assay [1], in assay [2], in assay [3], in assay [4], in assay [5] and in assay [6] was > 100 µM (inactive) each time. Moreover, the GI50 was > 100 µM (inactive) in assay [7]; > 82.2 µM (inactive) in assay [8]; > 100 µM (inactive) in assay [9]; > 100 µM (inactive) in assay [10]; 74.1 µM (inactive) in [11]; > 100 µM (inactive) in [12]. Also, the GI50 in assay [13], in assay [14], in assay [15], in assay [16], in [17] and in assay [18] was > 100 µM (inactive) throughout. Further, the GI50 in assay [19] and in assay [20] was > 100 µM (inactive) each time.

Consider `CCOC(=O)c1c(O)nc(O)c(CC)c1C`, for which the GI50 in [1], in assay [2], in assay [3], in [4], in [5] and in assay [6] was > 100 µM (inactive) each time. The GI50 in assay [7], in [8], in assay [9], in assay [10], in assay [11] and in [12] was > 100 µM (inactive) each time. The GI50 in assay [13] was 67 µM (inactive); in [14] it was > 100 µM (inactive); in assay [15], > 100 µM (inactive); in [16], > 100 µM (inactive); in assay [17], > 100 µM (inactive); in assay [18], > 100 µM (inactive). Besides, the GI50 in [19] and in [20] was > 100 µM (inactive) in each case.

Turning to `CC(C)(C)C(=O)OCOP(=O)(OCOC(=O)C(C)(C)C)OCC1OC(n2ccc(=O)[nH]c2=O)C(N=[N+]=[N-])C1O` (stereo not given), the GI50 in assay [1] is 3.71 µM (inactive); in assay [2], 4.9 µM (inactive); in assay [3], 0.804 µM (active); in [4], 2.14 µM (inactive); in [5], 2.99 µM (inactive); in assay [6], 1.59 µM (inactive). Also, the GI50 in assay [7] was 1.62 µM (inactive); in assay [8], 3.22 µM (inactive); in assay [9] it was 4.94 µM (inactive); in assay [10], 2.75 µM (inactive); in [11], 0.261 µM (active); in assay [12], 2.3 µM (inactive). The GI50 in assay [13] is 2.43 µM (inactive); in [14], 11.6 µM (inactive); in [15] it was 3.13 µM (inactive); in [16], 1.62 µM (inactive); in assay [17] it was 2.37 µM (inactive); in [18] it was 5.79 µM (inactive). In addition, the GI50 in assay [19] is 7.74 µM (inactive); in assay [20] it was 0.4 µM (active).

For `C/C(=C\c1ccc2c(c1)OCO2)[N+](=O)[O-]`, the GI50 was 2.21 µM (inactive) in [1]; 1.91 µM (inactive) in assay [2]; 5.14 µM (inactive) in [3]; 1.46 µM (inactive) in assay [4]; 4.2 µM (inactive) in [5]; 0.315 µM (active) in assay [6]. Also, the GI50 was 0.225 µM (active) in [7]; 7.16 µM (inactive) in assay [8]; 2.23 µM (inactive) in assay [9]; 3.54 µM (inactive) in [10]; 2.84 µM (inactive) in [11]; 1.46 µM (inactive) in [12]. The GI50 was 2.91 µM (inactive) in assay [13]; 2.74 µM (inactive) in assay [14]; 4.4 µM (inactive) in assay [15]; 1.19 µM (inactive) in assay [16]; 3.56 µM (inactive) in [17]; 2.59 µM (inactive) in assay [18]. The values for the GI50 in assay [19] and in [20] were 6.04 µM (inactive) and 1.66 µM (inactive), respectively.

With `CCCCCCCCC(=O)NCCN(CCN)C(=O)CCCCCCCC`, the GI50 is 13.7 µM (inactive) in [1]; 10.3 µM (inactive) in [2]; 8.38 µM (inactive) in assay [3]; 0.65 µM (active) in [4]; 13.1 µM (inactive) in assay [5]; 3.85 µM (inactive) in [6]. Further, the GI50 in [7] is 2.49 µM (inactive); in assay [8], 3.74 µM (inactive); in [9] it was 13.6 µM (inactive); in assay [10], 6.14 µM (inactive); in assay [11] it was 17.9 µM (inactive); in assay [12], 13.5 µM (inactive). Moreover, the GI50 was 5.7 µM (inactive) in assay [13]; 14.9 µM (inactive) in [14]; 8.17 µM (inactive) in assay [15]; 12.7 µM (inactive) in assay [16]; 15.3 µM (inactive) in assay [17]; 2.34 µM (inactive) in [18]. Further, the GI50 is 13.1 µM (inactive) in [19] and 15.2 µM (inactive) in [20].
